Data as given in US20260167623A1 (NIKANG THERAPEUTICS, INC., priority 2022, published 2026).

Experiments:
CDK2 [1] = molecular target: T1, CDK2 (Homo sapiens, UniProt P24941); assay: High-throughput HTRF measurement of cellular endogenous CDK2 level (degradation, DC50/Dmax) in OVCAR3 cells, 6 h; type: cell-based; conditions: 6 h compound treatment, HTRF total CDK2, read-out: DC50_OVCAR3_6h
T1 construct: High-Throughput Measurement of Cellular Endogenous CDK2; endogenous in cells; host or cells: OVCAR3
Experimental: High-Throughput Measurement of Cellular Endogenous CDK2
Effects of compounds on cellular CDK2 level were monitored by a high-throughput HTRF assay.
To determine half maximal degradation concentration (DC50) and maximum degradation level (Dmax) values of compounds, cellular CDK2 level was measured in 96-well format using HTRF total CDK2 cellular kit (Cat #64CDK2TPEG) from Cisbio.
On Day 1, OVCAR3 cells were seeded into 96-well tissue-culture treated plates at 20,000 cells/well in 200 μL and incubated overnight at 37° C. in CO2 atmosphere. On Day 2 cells were treated with compounds at concentration ranging from 0.03 to 1,000 nM using HP D300 digital dispenser. 6 hours after compound treatment, cell culture media was removed by flicking the plate and tapping the plate against clean paper towel. Immediately 30 μL 1× lysis buffer was supplemented from the kit and added to each well and the plate is incubated at room temperature on shaker for 30 min. After homogenization by pipetting up and down, 8 μL cell lysate from 96-well cell culture plate was transferred to 384-well small volume white detection plate. 2 μL premixed detection solution was added and the plate is covered with sealer. To prepare the detection solution, d2 conjugated-CDK2 antibody and Eu-cryptate conjugated CDK2 antibody were diluted into detection buffer following manufacturer's instruction. Detection plates were incubated overnight at room temperature and read on ClarioStar (BMG Labtech) in TR-FRET mode (665 nM and 620 nM). The TR-FRET ratio (665 nM/620 nM) was plotted against the compound concentration and normalized to DMSO controls (0% degradation) and lysis buffer controls (100% degradation). Half maximal degradation concentration (DC 50) […] were calculated with a four-parameter logistic fit using GraphPad Prism (version 8; La Jolla, CA).
In the table below, AA indicates a DC50 of greater than or equal to 0.5 nM but less than 1 nM; A indicates a DC50 of greater than or equal to 1 nM but less than or equal to 10 nM; B indicates a DC50 of greater than 10 nM but less than or equal to 100 nM; C indicates a DC50 of greater than 100 nM but less than or equal to 1 μM; and D indicates a DC50 of greater than 1 μM […] but less than or equal to 5 μM. NT means not tested.

CDK2 [2] = molecular target: T1, CDK2; assay: Inhibition of CDK2: phospho-Rb (S807/811) HTRF measurement in OVCAR3 cells, 24 h; type: cell-based; conditions: 24 h compound treatment, read-out: pRB_OVCAR3_24h
Method in brief: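 IC50 came from a four-parameter fit of DMSO-normalized TR-FRET ratios (665/620 nm) reporting phospho-Rb S807/811. Lysates were taken from OVCAR3 cultures treated 24 h with compound (0.3 to 10,000 nM) and incubated 4 h at room temperature with the antibody pair.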

Row | Structure (SMILES) | DC50 (CDK2 [1]) | IC50 (CDK2 [2])
1 | Cc1ncsc1-c1ccc([C@H](C)NC(=O)[C@@H]2C[C@@H](O)CN2C(=O)[C@@H](NC(=O)C2(F)CC2)C(C)(C)SCC2CCN(Cc3cccc(S(=O)(=O)N4CCC(Nc5ncc(C(F)(F)F)cn5)CC4)c3)CC2)cc1 [Example 8, (2S,4R)-1-((R)-2-(1-fluorocyclopropane-1-carboxamido)-3-methyl-3-(((1-(3-((4-((5-(trifluoromethyl)pyrimidin-2-yl)amino)-piperidin-1-yl)sulfonyl)benzyl)piperidin-4-yl)methyl)thio)butanoyl)-4-hydroxy-N-((S)-1-(4-(4-methylthiazol-5-yl)phenyl)-ethyl)pyrrolidine-2-carboxamide] | 1 to 10 nM | 100 to 500 nM
2 | Cn1nc(N2CCC(=O)NC2=O)c2ccc(C3CCN(Cc4cccc(S(=O)(=O)N5CCC(Nc6ncc(Cl)cn6)CC5)c4)CC3)cc21 [Example 11, 1-(6-(1-(3-((4-((5-chloropyrimidin-2-yl)amino)piperidin-1-yl)sulfonyl)benzyl)-piperidin-4-yl)-1-methyl-1H-indazol-3-yl)dihydropyrimidine-2,4(1H,3H)-dione] | 1 to 10 nM | 100 to 500 nM
3 | Cn1nc(N2CCC(=O)NC2=O)c2cc(F)c(C3CCN(Cc4cccc(S(=O)(=O)N5CCC(Nc6ncc(C(F)(F)F)cn6)CC5)c4)CC3)cc21 [Example 16, 1-(5-fluoro-1-methyl-6-(1-(3-((4-((5-(trifluoromethyl)pyrimidin-2-yl)amino)-piperidin-1-yl)sulfonyl)benzyl)piperidin-4-yl)-1H-indazol-3-yl)dihydropyrimidine-2,4(1H,3H)-dione] | 10 to 100 nM | 1 to 100 nM
4 | Cn1nc(N2CCC(=O)NC2=O)c2cc(F)c(C3CCN(Cc4cccc(S(=O)(=O)N5CCC(Nc6ncc(Cl)cn6)CC5)c4)CC3)cc21 [Example 23, 1-(6-(1-(3-((4-((5-chloropyrimidin-2-yl)amino)piperidin-1-yl)sulfonyl)benzyl)-piperidin-4-yl)-5-fluoro-1-methyl-1H-indazol-3-yl)dihydropyrimidine-2,4(1H,3H)-dione] | 10 to 100 nM | 100 to 500 nM
5 | Cn1nc(N2CCC(=O)NC2=O)c2ccc(C3CCN(Cc4cccc(S(=O)(=O)N5CCC(Nc6ncc(Br)cn6)CC5)c4)CC3)cc21 [Example 24, 1-(6-(1-(3-((4-((5-bromopyrimidin-2-yl)amino)piperidin-1-yl)sulfonyl)benzyl)-piperidin-4-yl)-1-methyl-1H-indazol-3-yl)dihydropyrimidine-2,4(1H,3H)-dione] | 1 to 10 nM | 100 to 500 nM
6 | Cn1nc(N2CCC(=O)NC2=O)c2ccc(C3CCN(Cc4cccc(S(=O)(=O)N5CC[C@H](Nc6ncc(Cl)cn6)[C@H](F)C5)c4)CC3)cc21 [Example 27] | 10 to 100 nM | 100 to 500 nM
7 | CC(Cc1cccc(S(=O)(=O)N2CCC(Nc3ncc(C(F)(F)F)cn3)CC2)c1)CN1CCC(c2ccc3c(N4CCC(=O)NC4=O)nn(C)c3c2)CC1 (stereo not shown) [Example 29] | 1 to 10 nM | 1 to 100 nM
8 | Cn1nc(N2CCC(=O)NC2=O)c2ccc(C3CCN(Cc4cccc(S(=O)(=O)N5CCC(Nc6ncc(Cl)cn6)CC5)c4)CC3(F)F)cc21 (stereo not shown) [Example 33, 1-(6-(1-(3-((4-((5-chloropyrimidin-2-yl)amino)piperidin-1-yl)sulfonyl)benzyl)-3,3-difluoropiperidin-4-yl)-1-methyl-1H-indazol-3-yl)dihydropyrimidine-2,4(1H,3H)-dione] | 10 to 100 nM | 100 to 500 nM
9 | Cn1nc(N2CCC(=O)NC2=O)c2ccc(C3CCN(Cc4cccc(S(=O)(=O)N5CCC(Nc6ncc(OC(F)F)cn6)CC5)c4)CC3)cc21 [Example 35, 1-(6-(1-(3-((4-((5-(difluoromethoxy)-pyrimidin-2-yl)amino)piperidin-1-yl)sulfonyl)benzyl)piperidin-4-yl)-1-methyl-1H-indazol-3-yl)dihydropyrimidine-2,4(1H,3H)-dione] | 10 to 100 nM | 1 to 100 nM
10 | CC(c1cccc(S(=O)(=O)N2CCC(Nc3ncc(Cl)cn3)CC2)c1)N1CCC(c2ccc3c(N4CCC(=O)NC4=O)nn(C)c3c2)CC1 (stereo not shown) [Example 38] | 10 to 100 nM | 100 to 500 nM
11 | Cn1nc(N2CCC(=O)NC2=O)c2ccc(C3CCN(CC4CCN(c5cccc(S(=O)(=O)N6CCC(Nc7ncc(C(F)(F)F)cn7)CC6)c5)CC4)CC3)cc21 [Example 40, 1-(1-methyl-6-(1-((1-(3-((4-((5-(trifluoro-methyl)pyrimidin-2-yl)amino)piperidin-1-yl)sulfonyl)phenyl)piperidin-4-yl)methyl)piperidin-4-yl)-1H-indazol-3-yl)dihydropyrimidine-2,4(1H,3H)-dione] | 1 to 10 nM | 1 to 100 nM
12 | O=C1CCC(N2Cc3cc(N4CCN(Cc5cccc(S(=O)(=O)N6CCC(Nc7ncc(C(F)(F)F)cn7)CC6)c5)CC4)c(F)cc3C2=O)C(=O)N1 (stereo not shown) [Example 42, 3-(6-fluoro-1-oxo-5-(4-(3-((4-((5-(trifluoro-methyl)pyrimidin-2-yl)amino)piperidin-1-yl)sulfonyl)benzyl)piperazin-1-yl)isoindolin-2-yl)piperidine-2,6-dione] | 1 to 10 nM | 1 to 100 nM
13 | O=C1CCC(N2Cc3cc(N4CCN(Cc5cccc(S(=O)(=O)N6CCC(Nc7ncc(OC(F)F)cn7)CC6)c5)CC4)c(F)cc3C2=O)C(=O)N1 (stereo not shown) [Example 43, 3-(5-(4-(3-((4-((5-(difluoromethoxy)-pyrimidin-2-yl)amino)piperidin-1-yl)sulfonyl)benzyl)piperazin-1-yl)-6-fluoro-1-oxoisoindolin-2-yl)piperidine-2,6-dione] | 10 to 100 nM | 100 to 500 nM
14 | Cn1c(S(=O)(=O)N2CCC(Nc3ncc(C(F)(F)F)cn3)CC2)cnc1CN1CCC(c2ccc3c(N4CCC(=O)NC4=O)nn(C)c3c2)CC1 [Example 47, 1-(1-methyl-6-(1-((1-methyl-5-((4-((5-(trifluoromethyl)pyrimidin-2-yl)amino)-piperidin-1-yl)sulfonyl)-1H-imidazol-2-yl)methyl)piperidin-4-yl)-1H-indazol-3-yl)dihydropyrimidine-2,4(1H,3H)-dione] | 10 to 100 nM | 1 to 100 nM
15 | CC(Cc1cccc(S(=O)(=O)N2CCC(Nc3ncc(Cl)cn3)CC2)c1)CN1CCC(c2ccc3c(N4CCC(=O)NC4=O)nn(C)c3c2)CC1 (stereo not shown) [Example 53, 1-(6-(1-(3-(3-((4-((5-chloropyrimidin-2-yl)amino)piperidin-1-yl)sulfonyl)phenyl)-2-methylpropyl)piperidin-4-yl)-1-methyl-1H-indazol-3-yl)dihydropyrimidine-2,4(1H,3H)-dione] | 10 to 100 nM | 1 to 100 nM
16 | Cn1nc(N2CCC(=O)NC2=O)c2ccc(C3CCN(CC(C)(C)Cc4cccc(S(=O)(=O)N5CCC(Nc6ncc(Cl)cn6)CC5)c4)CC3)cc21 [Example 54, 1-(6-(1-(3-(3-((4-((5-chloropyrimidin-2-yl)amino)piperidin-1-yl)sulfonyl)phenyl)-2,2-dimethylpropyl)piperidin-4-yl)-1-methyl-1H-indazol-3-yl)dihydropyrimidine-2,4(1H,3H)-dione] | 1 to 10 nM | 1 to 100 nM
17 | Cn1nc(N2CCC(=O)NC2=O)c2ccc(C3CCN(CC(C)(C)Cc4cccc(S(=O)(=O)N5CCC(Nc6ncc(C(F)(F)F)cn6)CC5)c4)CC3)cc21 [Example 55, 1-(6-(1-(2,2-dimethyl-3-(3-((4-((5-(trifluoro-methyl)pyrimidin-2-yl)amino)piperidin-1-yl)sulfonyl)phenyl)propyl)piperidin-4-yl)-1-methyl-1H-indazol-3-yl)dihydropyrimidine-2,4(1H,3H)-dione] | 10 to 100 nM | 1 to 100 nM
